This is an account of results in paper PMC7926627, “Fine-Tuning the Biological Profile of Multitarget Mitochondriotropic Antioxidants for Neurodegenerative Diseases” (Antioxidants, 2021).

The target of data set [1] is T1, eqBChE (equine butyrylcholinesterase) (Equus caballus, UniProt P81908).
T1 construct: butyrylcholinesterase (eqBuChE, E.C. 3.1.1.8, from equine serum); purchased Sigma Aldrich; host or cells: equine serum
Briefly: biochemical.
Method: The eeAChE and eqBChE inhibitory activities of the compounds under study were determined following the Ellman’s method [32, 33]
Substrate solutions (ATCI or BCTI) were prepared in deionized water (conductivity ˂ 0.1 µS.cm-
Evaluation of eel acetylcholinesterase and equine butyrylcholinesterase inhibitory
The eeAChE and eqBChE inhibitory activities of the compounds under study were evaluated following the Ellman’s method [1, 2]. Briefly, a mixture containing sodium phosphate buffer, enzyme (final concentration: eeAChE 0.05 U/mL and eeBChE 0.05 U/mL), DTNB (final concentration: 400 µM) and the test compounds/reference inhibitors were preincubated for 5 minutes at 30 °C in a 96-well microplate (BRANDplates, pureGradeTM, BRAND GMBH, Wertheim, Germany). In control experiments, sodium phosphate buffer was used instead of the
ºC in a microplate reader (BioTek Synergy HT from BioTek Instruments, Winooski, VT, USA).
The rates of the substrate enzymatic hydrolysis were determined, normalized and plotted against the respective inhibitor concentration. IC50 values were obtained from the dose-response curves
and were expressed as mean ± standard deviation. IC50 values were determined in at least three
independent experiments, each performed at least in triplicates.

Data set [2] deals with T2, hMAO-A (Homo sapiens, UniProt P21397).
T2 construct: purchased Sigma Aldrich; host or cells: insect cells (BTI-TN-5B1-4), baculovirus
T2 sequence (P21397 1-527): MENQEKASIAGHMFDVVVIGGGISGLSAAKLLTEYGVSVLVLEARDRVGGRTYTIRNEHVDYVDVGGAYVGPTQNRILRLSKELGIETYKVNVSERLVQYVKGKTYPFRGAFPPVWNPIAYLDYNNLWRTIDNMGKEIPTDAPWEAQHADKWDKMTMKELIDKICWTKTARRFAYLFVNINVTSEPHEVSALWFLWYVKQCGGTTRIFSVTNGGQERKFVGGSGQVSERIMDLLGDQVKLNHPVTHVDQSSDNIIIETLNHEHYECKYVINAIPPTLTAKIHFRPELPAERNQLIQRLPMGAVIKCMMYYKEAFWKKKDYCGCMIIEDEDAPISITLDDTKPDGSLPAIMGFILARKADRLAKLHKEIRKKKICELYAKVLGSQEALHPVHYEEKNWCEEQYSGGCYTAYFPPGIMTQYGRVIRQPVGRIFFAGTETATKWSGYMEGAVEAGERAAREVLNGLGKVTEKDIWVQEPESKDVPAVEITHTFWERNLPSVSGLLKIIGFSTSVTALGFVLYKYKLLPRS
Briefly: hMAO-A inhibition, kynuramine substrate. It is filed as biochemical.
Method: The inhibitory activity of lipophilic TPP^+ cations on hMAO-A and hMAO-B was studied using an experimental protocol described elsewhere [29, 40]
Evaluation of human monoamine oxidase (hMAO) inhibitory activity The human monoamine oxidase (hMAO) inhibitory outline was assessed in microsomal MAO isoforms prepared from insect cells (BTI-TN-5B1-4) infected with recombinant baculovirus containing cDNA inserts for hMAO-A or hMAO-B an d by measuring the enzymatic conversion rates of kynuramine into 4-hydroxyquinoline. The appropriate amounts of hMAO-A and hMAO-B were adjusted to obtain, in our experimental conditions, the same maximum
All assays were performed in sodium phosphate buffer solution 50 mM pH 7.4.
The compounds under study and reference inhibitors were pre-incubated at 37 °C for 10
concentration: 2×Km) in 96-well microplates (BRANDplates, pureGradeTM, BRAND GMBH, Wertheim, Germany). Then, the reaction was started with the addition of hMAO-A or hMAO-B.
Initial velocities were determined spectrophotometrically in a microplate reader (BioTek Synergy HT from BioTek Instruments, Winooski, VT, USA) at 37 °C by measuring the formation of 4-
The initial velocities, obtained from the linear phase of product formation, were normalized and plotted against the respective inhibitor concentration. IC50 values were obtained from dose-response curves and were expressed as mean ± standard deviation. IC50 values were determined from at least three independent experiments, each performed in triplicate.

Data set [3] is described as follows: Oxygen radical absorbance capacity (ORAC-FL) assay. The note with it: for ROO• radical scavenging: ORAC-FL; for ORAC-FL Index: relative Trolox equivalent ORAC value.
The test system of data set [4] is differentiated SH-SY5Y cells. Briefly: Resazurin reduction assay (cytotoxicity). It is filed as cell-based, human. The note with it: 24 h. On the procedure:
For cytotoxicity studies, differentiated SH-SY5Y cells were incubated with increasing concentrations of the test compounds (0.20–100 µM) for 24 h. Controls were treated with culture media containing 0.1% DMSO. Cell viability was estimated using two different methods: resazurin reduction assay and NR uptake assay. […]
days. The cultures were passaged once a week by trypsinization (0.25 % trypsin/1 mM EDTA).
To avoid phenotypic changes, the cells used for all experiments were taken between 19th and 28th passages. Cells were differentiated as described previously by Fernandes et al.. Briefly, SH-SY5Y cells were seeded onto 96-well plates at a density of 25,000 cells/cm2 in cell culture medium with trans-retinoic acid (RA) (final concentration of 10 µM) and incubated for 3 days at 37 °C in a humidified, 5% CO2−95% air atmosphere. The cell culture medium was then removed and replaced with medium supplemented with 12-O-tetradecanoylphorbol-13-acetate (TPA) (final concentration 80 nM), and cells were incubated for 3 days. Stock solutions of RA (10 mM) and TPA (80 µM) were prepared in DMSO.
1.5.3. Cytotoxicity assays
1.5.3.1. Resazurin reduction assay
Resazurin is a non-fluorescent, non-toxic water-soluble dye able to permeate through cell […]
highly fluorescent resorufin [8, 9]. Since the conversion of resazurin into resorufin occurs mostly in mitochondria, the amount of resorufin produced can be used as indicator of metabolic activity. The quantity of resorufin production is proportional to the number of viable cells in culture and can be quantified fluorometrically or colorimetrically.
Resazurin reduction assay was performed as previously described by Fernandes et al..
Briefly, after the 24 h incubation periods with the test compounds, the cell culture medium was removed and replaced with fresh culture medium with resazurin (10 μg/mL) prepared in cell culture medium. Differentiated SH-SY5Y cells were incubated for 2 h at 37 °C in a humidified 5% CO2−95% air atmosphere. Then, the fluorescence was read in a multiwell microplate reader (PowerWave XS from BioTek Instruments, Vermont, US), using an excitation wavelength of 540 nm and an emission wavelength of 590 nm. The results were expressed as the percentage of resazurin reduction relative to that of the control (non-treated) cells [resazurin reduction (% of […]
1.5.3.2. Neutral red uptake assay
The neutral red (NR) uptake assay is based on the ability of viable cells to incorporate the supravital dye NR and retain it inside the lysosomes. NR uptake assay was performed as previously described by Fernandes et al. Briefly, after the 24 h incubation periods with the test compounds, the cell culture medium was removed and NR solution ([…]) in fresh cell culture medium was added. Differentiated SH-SY5Y cells and Caco-2 cells were incubated for 2 h and 1 h, respectively, at 37 °C in a humidified, 5% CO2−95% air atmosphere. Then, the cell culture medium was removed and replaced by ethanol absolute/distilled water (1:1) with 5 % acetic acid to liberate the dye from the viable cells. The absorbance was measured at 540 nm in a […]

Data set [5] has as its system differentiated SH-SY5Y cells. Briefly: Neutral red (NR) uptake assay (cytotoxicity). It is filed as cell-based, human. The following applies: 24 h; for effect on NR uptake: increasing concentrations up to 100 µM.
Method: To avoid phenotypic changes, the cells used for all experiments were taken between 19th and 28th passages. Cells were differentiated as described previously by Fernandes et al. [6]. Briefly, SH-SY5Y cells were seeded onto 96-well plates at a density of 25,000 cells/cm2 in cell culture medium with trans-retinoic acid (RA) (final concentration of 10 µM) and incubated for 3 days at
The neutral red (NR) uptake assay is based on the ability of viable cells to incorporate the supravital dye NR and retain it inside the lysosomes [11]. NR uptake assay was performed as previously described by Fernandes et al. [12] Briefly, after the 24 h incubation periods with the test compounds, the cell culture medium was removed and NR solution (50 mg/mL) in fresh cell culture medium was added. Differentiated SH-SY5Y cells and Caco-2 cells were incubated for 2
multiwell microplate reader (PowerWave XS from BioTek Instruments). The results were
expressed as the percentage of NR uptake relative to that of the control (non-treated) cells [NR
uptake (% of control)] ± standard error mean (SEM) of at least three independent experiments.
Stock solutions of the test compounds (10 µM) were prepared in DMSO and diluted in
Data set [6] in a line: Chromatographic hydrophobicity index by gradient RP-HPLC at pH 2.3.
Method: Chromatographic hydrophobicity indexes (CHIs) at pH 2.3 were determined using an experimental protocol described elsewhere [45, 46] and included in the supplementary information.
Evaluation of the chromatographic hydrophobicity index
Chromatographic hydrophobicity indexes (CHIs) values were determined using the
retention times (tR) of samples and a mixture of reference compounds. The data was acquired on
a Shimadzu high-performance liquid chromatograph SPD-M20A system (Shimadzu, Kyoto,
Japan) with a Luna C18 (2) column (Phenomenex, CA, USA) 150×4.6 mm, 5 µm. In CHI
determinations at pH 2.3, mobile phase A was aqueous solution of acetic acid 1 % (v/v) (pH 2.3),
and mobile phase B was acetonitrile. The following gradient program was applied: 1 mL/min
Calibration plots were obtained using a mixture of the following compounds:
paracetamol, theophylline, caffeine, benzimidazole, colchicine, carbamazepine, indole,
propiophenone, butyrophenone, valerophenone, and heptanophenone (Table S1, Figure S2).
hydrophobicity index (CHI) values were calculated as previously described [13, 14].
Setting [7] is: at concentrations above 12.5 µM.

T1 sequence (P81908 whole entry): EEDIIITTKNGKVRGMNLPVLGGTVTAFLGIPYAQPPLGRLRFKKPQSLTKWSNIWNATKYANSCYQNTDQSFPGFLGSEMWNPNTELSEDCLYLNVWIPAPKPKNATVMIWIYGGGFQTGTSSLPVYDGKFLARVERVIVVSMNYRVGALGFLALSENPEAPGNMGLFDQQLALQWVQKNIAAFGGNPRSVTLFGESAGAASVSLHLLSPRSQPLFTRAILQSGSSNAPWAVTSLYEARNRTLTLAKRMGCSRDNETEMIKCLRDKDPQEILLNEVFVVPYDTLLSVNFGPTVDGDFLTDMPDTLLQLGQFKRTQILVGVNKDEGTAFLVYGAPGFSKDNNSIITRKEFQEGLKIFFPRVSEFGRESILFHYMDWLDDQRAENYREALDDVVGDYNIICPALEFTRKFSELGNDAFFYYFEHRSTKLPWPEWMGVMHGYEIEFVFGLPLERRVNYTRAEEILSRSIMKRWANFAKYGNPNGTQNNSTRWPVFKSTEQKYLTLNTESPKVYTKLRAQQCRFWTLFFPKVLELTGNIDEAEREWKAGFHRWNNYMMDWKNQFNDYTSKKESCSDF

For the compound `O=C(/C=C/C=C/c1ccc2c(c1)OCO2)NCCCC[P+](c1ccccc1)(c1ccccc1)c1ccccc1.[Br-]` [Compound 2, (4-((2E,4E)-5-(Benzo[d][1,3]dioxol-5-yl)penta-2,4-dienamido)butyl)triphenylphosphonium bromide], in data set [1], the IC50 is 28.2 ± 1.4 nM and the “SI (1): eqBChE selectivity index = IC50(eeAChE)/IC50(eqBChE)” value is reported as 226. For the same compound, half-maximal inhibition in data set [2] (IC50) was put at 888 ± 22 nM. In addition, in data set [3], the “ROO• radical scavenging” value is on record as “unable to scavenge ROO• radicals”. In addition, the “concentrations in which the resazurin reduction was significantly decreased” value in data set [4] is recorded as no less than 50 µM. Moreover, the “resorufin fluorescence (% of control)” value in data set [4] (at concentrations above 25 µM) is less than 85%. Besides, the “effect on NR uptake” value in data set [5] is on record as “remained constant”. The same compound displayed a CHI in data set [6] of 42.8.

With `O=C(/C=C/C=C/c1ccc2c(c1)OCO2)NCCCCCC[P+](c1ccccc1)(c1ccccc1)c1ccccc1.[Br-]` [Compound 3, (6-((2E,4E)-5-(Benzo[d][1,3]dioxol-5-yl)penta-2,4-dienamido)hexyl)triphenylphosphonium bromide], in data set [1], half-maximal inhibition (IC50) was put at 17.9 ± 0.9 nM and the “SI (1): eqBChE selectivity index = IC50(eeAChE)/IC50(eqBChE)” value worked out at 314. Moreover, inhibition in data set [2] was half-maximal at 1230 ± 130 nM (IC50). Further, in data set [3], the “ROO• radical scavenging” value is reported as “unable to scavenge ROO• radicals”. Further, the “resorufin fluorescence (% of control)” value in data set [4] (setting [7]) was less than 85%. In addition, the “lysosomal toxicity (NR uptake)” value in data set [5] (setting [7]) is recorded as “significant lysosomal toxicity”. Further, the CHI in data set [6] was found to be 45.8.

On to `O=C(/C=C/C=C/c1ccc(O)c(O)c1)NCCCC[P+](c1ccccc1)(c1ccccc1)c1ccccc1.[Br-]` [Compound 4, (4-((2E,4E)-5-(3,4-Dihydroxyphenyl)penta-2,4-dienamido)butyl)triphenylphosphonium bromide], for which, in data set [1], the half-inhibitory concentration (IC50) was 61.9 ± 4.2 nM and the “SI (1): eqBChE selectivity index = IC50(eeAChE)/IC50(eqBChE)” value came out at 36. This compound also returned an IC50 in data set [2] of 5170 ± 540 nM. Moreover, in data set [3], the “ORAC-FL Index” value was determined as 3.3 ± 0.1. In addition, the “effect on resazurin reduction” value in data set [4] (concentrations up to 100 µM) is given as “did not markedly affect”. Also, in data set [5], the “effect on NR uptake” value is “remained constant”. Moreover, the CHI in data set [6] worked out at 34.4.

Consider `O=C(/C=C/C=C/c1ccc(O)c(O)c1)NCCCCCC[P+](c1ccccc1)(c1ccccc1)c1ccccc1.[Br-]` [Compound 5, (6-((2E,4E)-5-(3,4-Dihydroxyphenyl)penta-2,4-dienamido)hexyl)triphenylphosphonium bromide], for which, in data set [1], the concentration for half-maximal inhibition (IC50) was determined as 34.1 ± 2.9 nM and the “SI (1): eqBChE selectivity index = IC50(eeAChE)/IC50(eqBChE)” value amounted to 62. The midpoint of inhibition in data set [2], the IC50, lay at 2170 ± 280 nM. For the same compound, the “ORAC-FL Index” value in data set [3] was determined as 3.1 ± 0.3. For the same compound, the “concentrations in which the resazurin reduction was significantly decreased” value in data set [4] is reported as no less than 50 µM. Also, the “resorufin fluorescence (% of control)” value in data set [4] (at concentrations above 25 µM) is less than 85%. Moreover, the “effect on NR uptake” value in data set [5] is “remained constant”. In data set [6], this compound gave a CHI of 37.2.
